Data published in patent US5770623A, “Argine antagonists for inhibition of systemic hypotension associated with nitric oxide production or endothelial derived relaxing factor” (Board of Regents, The University of Texas System, priority 1995, dated 1998).
Where two headings read alike, the source gives them in different places.

Tests used:
anesthetized guinea pig = assay: Pressor effect in the anesthetized guinea pig; type: in vivo; conditions: 1-10 mg/kg i.v. (L-NMA)
Source text: Points are mean changes in diastolic arterial pressure (±SEM; n=4-5). Control systolic and diastolic BP was 75±3 and 51±3 mm Hg, respectively.

[1] = target: EMT6 enzyme system (NO formation from L-arginine) (Mus musculus, UniProt P29477); assay: Arginine-dependent nitrite synthesis by cytosol of stimulated EMT6 cells; type: biochemical, murine
Chain of EMT6 enzyme system (NO formation from L-arginine) (P29477 whole entry): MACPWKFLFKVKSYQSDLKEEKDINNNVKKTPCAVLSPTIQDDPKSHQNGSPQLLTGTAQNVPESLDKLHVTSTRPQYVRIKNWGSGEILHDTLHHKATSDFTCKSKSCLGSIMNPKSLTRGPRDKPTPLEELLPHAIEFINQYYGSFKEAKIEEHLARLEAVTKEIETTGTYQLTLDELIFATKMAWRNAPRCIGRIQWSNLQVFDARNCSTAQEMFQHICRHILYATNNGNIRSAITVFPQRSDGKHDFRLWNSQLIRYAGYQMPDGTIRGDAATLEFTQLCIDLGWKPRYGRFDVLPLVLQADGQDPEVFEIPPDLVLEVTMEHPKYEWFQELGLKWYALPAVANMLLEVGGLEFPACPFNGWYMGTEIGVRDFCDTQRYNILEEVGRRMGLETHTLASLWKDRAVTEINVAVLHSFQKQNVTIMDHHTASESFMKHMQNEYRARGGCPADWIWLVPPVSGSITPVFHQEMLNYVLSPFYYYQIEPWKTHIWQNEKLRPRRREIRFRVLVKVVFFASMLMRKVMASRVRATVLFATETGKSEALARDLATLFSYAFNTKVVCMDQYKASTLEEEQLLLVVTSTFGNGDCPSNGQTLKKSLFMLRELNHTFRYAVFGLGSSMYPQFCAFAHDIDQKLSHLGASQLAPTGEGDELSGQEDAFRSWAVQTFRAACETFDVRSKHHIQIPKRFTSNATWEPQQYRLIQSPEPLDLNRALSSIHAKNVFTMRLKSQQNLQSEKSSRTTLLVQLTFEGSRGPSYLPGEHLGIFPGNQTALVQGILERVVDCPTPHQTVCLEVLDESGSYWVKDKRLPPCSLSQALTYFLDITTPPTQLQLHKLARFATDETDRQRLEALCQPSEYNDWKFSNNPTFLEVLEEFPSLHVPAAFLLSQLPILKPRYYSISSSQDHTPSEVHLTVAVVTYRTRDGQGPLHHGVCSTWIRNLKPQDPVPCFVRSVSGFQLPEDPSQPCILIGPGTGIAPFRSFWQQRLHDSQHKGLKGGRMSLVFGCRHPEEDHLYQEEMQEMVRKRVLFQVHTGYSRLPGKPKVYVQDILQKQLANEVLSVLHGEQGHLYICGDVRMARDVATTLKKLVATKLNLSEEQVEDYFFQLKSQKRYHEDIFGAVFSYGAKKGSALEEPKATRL
Protocol: Thus EMT6 cytosolic preparations (i.e., cell-free solutions) were prepared and an enzyme activity was characterized which forms NO and citrulline from arginine. This reaction requires NADPH (FIG. 18 and 19) and other cofactors.
Incubation mixtures were 100 μl total volume containing: 40 μl cytosol (100,000×g supernatant), 2 mM L-arginine, 2 mM NADPH, 20 mM TRIS (pH 8.0) and a "cocktail" of protease inhibitors.
From kinetic studies an apparent Michaelis-Menton constant for L-arginine utilization by the enzyme was deduced. FIG. 20 is a Lineweaver-Burke plot for synthesis of nitrite from L-arginine by cytosol from stimulated EMT6 cells. The rate of nitrite formation was evaluated over a range of L-arginine (ARG) concentrations (from 0.03-2.0 mM) under conditions similar to that described for FIG. 18, except that incubates contained 50 μl cytosol in a total volume of 80 μl. Open and filled circles represent results obtained with each of two cytosol preparations. […] N^G -substituted arginine analogs were screened for precise quantitation of their ability to inhibit arginine-dependent NO formation by the EMT6 enzyme system.

[2] = test system: murine endothelial cells exposed to Gamma-Interferon and TNF (nitric oxide production); assay: Inhibition of nitrite production by MBEC exposed to IFN (100 U/ml) and TNF (500 U/ml); type: cell-based; conditions: for IC50: Mus musculus, Endothelial cell, 48 h, read-out: ED50% (effective dose that inhibited 50% of the nitrite production); for potency ranking as inhibitor of nitric oxide production: analogs of Table 5
Description: Endothelial cells--MBEC's were isolated from murine brain microvessels and cultured on gelatin-coated tissue culture dishes in DME/F12 media supplemented with 2% PPPHS, 5% FBS (Hyolone), 50 μg/ml ECGF (Biomed Tech), and 10 U/ml heparin (Sigma) as previously described (Belloni et al. 1989). The endothelial derivation of MBEC's was determined by the presence of a non-thrombogenic surface to platelets and immunofluorescent staining for Factor VIII related antigen. MBEC's were used between passage 6-9 for all experiments.
Nitrite Assay--MBE cells were cultured on gelatin-coated well plates (Corning) in 100 μl of culture medium and treated with cytokines at 3 days post-confluence. After 48 hours, nitrite production was determined by a colorimetric assay. […] All treatments were performed in triplicate and data presented as the mean value±standard deviation. […]
production by murine endothelial cells exposed to GammaInterferon (100
U/ml) and TNF (500 U/ml) in vitro.

[3] = test system: guinea pig pulmonary artery rings; assay: Relaxation of preconstricted guinea pig pulmonary artery rings; conditions: for inhibition of EDRF/NO synthesis: guinea pig pulmonary artery rings, 1 μM NE, ACh
[4] = test system: murine brain endothelial cells (MBEC); assay: Nitrite production by MBEC exposed to cytokines / immunomodulators (Griess assay); type: cell-based; conditions: IFN 100 U/ml, TNF 500 U/ml, IL-1 10 U/ml, endotoxin 1 μg/ml; 48 hours
[5] = test system: nitroglycerin-treated dogs; assay: Nitroglycerin-induced hypotension in dogs (Example 4); type: in vivo, dog; conditions: Table 1, Study 2: Nitroglycerin-treated (n = 3)
Description: Animals: Studies were carried out on 12 conditioned mongrel dogs (9 males and 3 females) weighing 22-32 kg (avg=25.3 kg). Animal care was in accordance with the recommendations of the American Association for Accreditation of Laboratory Animal Care, and met all standards prescribed by the Guide for the Care and Use of Laboratory Animals (Guide for the Care and Use of Laboratory Animals (1978) Dept. of Health, Education and Welfare, Washington, D.C. (Publ. No. 78-23). Animal protocols were approved by The University of Texas Animal Welfare Committee. The dogs were fasted overnight prior to the day of experimentation. They were anesthetized with sodium pentobarbital (25 mg/kg I.v.). Dogs were then endotracheally intubated and ventilated with a piston-driven respirator (Harvard instruments) using room air at a tidal volume of 20 ml/kg and at a rate of 10 to 12 breaths per minute, adjusted to achieve a normal arterial pH and pCO2 (Instrumentation Laboratories 1L13012 pH/Blood Gas Analyzer). Catheters were placed percutaneously into the femoral and pulmonary arteries; In the latter, a flow-directed thermal-dilation catheter was used (Abbott Critical Care Systems).
Physiologic measurements: Mean SAP and heart rate were continuously monitored (Parametron 7048 Monitoring System, Roche) and stored on a magnetic disk using an analog-to-digital converter (Scientific Solutions, Inc.). Cardiac output (CO) was determined as the mean of six measurements by thermal-dilution. Systemic vascular resistance was calculated as (SAP X80)/CO and expressed as […].
Protocol: After the blood pressure and heart rate stabilized, endotoxin (40 ug/kg, in 10 ml of phosphate-buffered saline (PBS), pH 7.4) was infused i.v. over 2 minutes. This dose of endotoxin typically induces severe and often lethal cardiovascular collapse in the dog. Blood pressure was monitored, and when either SAP fell below 60 mmHg or a stable nadir in systemic arterial pressure (SAP) was maintained for 10 minutes, L-NMA was administered (20 mg/kg in 5 ml of PBS i.v. over 1 min.). In most experiments, L-arginine (400 mg/kg in 20 mi PBS) was administered ten minutes later by i.v. infusion over 2 minutes. In control experiments, dogs without prior exposure to endotoxin received L-NMA alone. To simulate the hypotension observed in dogs receiving endotoxin, one group of dogs received a continuous i.v. infusion of nitroglycerin (2 mg/ml) at a rate adjusted to maintain the SAP at 60-70 mm Hg. Nitroglycerin-treated dogs then received L-NMA (20 mg/kg) and 20 minutes later L-arginine was administered […].
In an additional series of experiments, blood pressure was reduced to 65 mm Hg by continuous i.v. infusion of nitroglycerin, a hypotensive agent that forms NO by an L-arginine and NO synthetase-independent mechanism.

[6] = test system: isolated guinea pig heart; assay: Histamine-induced nitrite release and coronary flow in isolated perfused guinea pig heart; conditions: histamine-elicited
Description: Histamine was administered as a rapid bolus injection into the aorta and net nitrite release during the subsequent 2.5 minutes was determined.

rabbit aortic rings = assay: ACh-induced relaxation of isolated rabbit aortic rings; conditions: isolated rabbit aortic rings, FIG. 9b
Source text: FIG. 9b compares concentration-response relationships for the same set of mono- and disubstituted arginine analogs as FIG. 9a, plus an additional dimethyl analog with the two methyl groups on different guanidino nitrogens. The test is for inhibition of ACh-induced vasorelaxation in isolated rabbit aortic rings. The points plotted represent means±S.E. of the maximum responses to ACh observed in the presence of the indicated concentrations of analogs (n=4).
Guinea pig pulmonary artery (GP PA), rat and rabbit aorta (Ao), and dog coronary (CA) and femoral artery (FA) were precontracted with NE (1 μM) and relaxed with a single concentration of ACh. Concentration of ACh: GP PA 1 μM, rat Ao […], rabbit Ao 0.3, dog CA […] and […] 0.1 μM. […] The concentrations of L-citrulline (L-cit), D-arginine (D-arg) and L-arginine (L-arg) were all 0.5 mM. Bars are mean values±SEM (n=4-6).
FIG. 11 contains representative physiograph tracings which depict ACh-induced relaxation of NE-preconstricted rings prepared from rabbit aorta (upper panel) and human internal mammary artery (lower panel).

[7] = test system: bovine aortic endothelial cells (BAEC); assay: A23187-stimulated nitrite release from bovine aortic endothelial cells; type: cell-based; conditions: 2-hr, L-arginine-free medium, FIG. 9a
Description: The % inhibition of relaxation is calculated from the maximum ACh-induced relaxation observed in the presence of the arginine analog relative to that in its absence. Points represent mean values±SEM (n=4-6). […] Another N^G substitution tested for inhibition of induced nitrite release had two methyl groups on one of the arginine guanidino nitrogens. Concentration-response relationships for inhibition of A23187-stimulated nitrite release by bovine aortic endothelial cells (BAEC) are shown in FIG. 9a for the N,N-disubstituted derivative in comparison with several monosubstituted derivatives. Nitrite production was measured as an indication of nitric oxide synthesis since nitric oxide spontaneously decays to nitrite. Nitrite production by BAEC in a 2-hr. period was assessed in an L-arginine-free medium alone or in the presence of the indicated concentration of arginine analogs. The points plotted represent means±S.E. of the percent inhibition of nitrite production observed in 3 individual BAEC culture wells. The key on FIG. 9a indicates the groups substituted on the guanidino nitrogens of L-arginine.
Points are mean values±SEM (n=3).

[8] = test system: mongrel dogs with TNF-induced hypotension; assay: TNF-induced hypotension in anesthetized dogs; type: in vivo, dog; conditions: dog, FIG. 25
Description: Recombinant human TNF specific activity 2×10^7 units/mg, was from the Niposn Chemical Corporation, Tokyo, Japan. TNF was administered at a dose of 10 mcg/kg in a volume of 10 ml of phosphate buffered saline containing 2 mgs/ml of dog albumin. […] Arginine was obtained from Sigma Chemical Company, St. Louis, Mo.
Four conditioned mongrel dogs, 2 males and 2 females, weighing 28 to 30 kgs, were studied. Care of the animals were in accordance with the recommendation of the American Association for Accreditation of Laboratory Animals [DHEW(DHHS) publication no. (NIH) 78-23, revised, 1978]. On the day of the experiment, the dogs were fasted overnight. They were anesthetized with phenobarbital (10 mg/kg). They were then intubated orally with a #10 fr. endotracheal tube and ventilated with a Harvard pump ventilator at a rate of 12 breaths per minute and a tidal volume of 15 ml/kg. An arterial line was percutaneously placed in the femoral artery on the day of the experiment.
Mean (electronic) and phasic systemic arterial pressures (SAP) were continuously recorded on a Hewlett-Packard recording system (model 7758B) using strain gauge manometers (Hewlett-Packard model 1290A) which were connected to the arterial line. Heart rate (HR) was determined from an EKG tracing and continuously recorded on the Hewlett-Packard recording system. Oxyhemoglobin saturation (SaO2) was obtained using a pulse oximeter (BIOX 111, Boulder, Colo.). continuous time-series records of SAP, HR, and SaO2 were obtained using a Lab Master analog-to-digital convertor (16 channel, 12 bit, 30 kHz; Scientific Solutions, Inc.) sampling at 55 Hz and storing the 6 sec averages on a magnetic disk.

L929 cells = assay: Cytolytic activity of rh-TNF against Actinomycin D-treated L929 cells; type: cell-based, murine; conditions: murine L929 cells, in vitro
Description: TNF bioactivity was measured by the cytotoxicity towards murine L929 cells, in vitro.

lethal ET shock animal = assay: Reversal of lethal-dose endotoxin shock by N^G-aminoarginine; type: in vivo
Description: The reversal of ET shock (lethal dose) by N^G -aminoarginine (NAA) for 4 hrs. […] FIG. 26 depicts systemic arterial pressure (SAP) versus time (min). ET (2 mg/kg), a lethal dose, was infused over 60 min. and NAA administered at 97, 165, and 374 min. to maintain blood pressure. The animal was survived for 24 hours and then autopsied.

[9] = test system: systemic hypotension mediated by interleukin-1; assay: Interleukin-1 mediated systemic hypotension; type: in vivo; conditions: FIG. 27
[10] = murine endothelial cells, Gamma-Interferon (100 U/ml) and TNF (500 U/ml), in vitro

With CCNC(=N)NCCC[C@H](N)C(=O)O [L-N^G -ethylarginine (L-NEA), L-N^G -ethylarginine] the “effect on diastolic BP / pressor effect (words)” value (anesthetized guinea pig) was “sustained pressor effect”, the mode of inhibition ([1]; Lineweaver-Burke) was “competitive inhibitor” and the “fold less active than NMMA” value ([1]; compared with NMMA, FIG. 22) was “approximately 10 -fold”.

COC(=O)[C@@H](N)CCCNC(=N)N[N+](=O)[O-] [Nitro-L-Arginine methyl ester] showed an IC50 [2] of 1830 µM.

N=C(NCCC[C@@H](N)C(=O)O)N[N+](=O)[O-] [Nitro-D-Arginine] was tested, and the IC50 [2, 10] was > 4500 µM.

With N=C(NCCC[C@H](N)C(=O)O)N[N+](=O)[O-] [Nitro-L-Arginine, N^G -nitroarginine] the IC50 [2, 10] was 2120 µM and the “inhibition of EDRF/NO synthesis” value [3] was “served as inhibitors of EDRF/NO synthesis”.

For CC(=O)N[C@H]1C(O)O[C@H](CO)[C@@H](O)[C@@H]1O[C@H](C)C(=O)N[C@@H](C)C(=O)N[C@H](CCC(=O)O)C(N)=O (stereo partly shown) [muramyl dipeptide (MDP), muramyl dipeptide, reference compound], the “effect on nitrite production by MBEC” value [4] was “Neither muramyl dipeptide (MDP) or Il-2 alone, or in combination with IFN effected nitrite production”.

With CNC(=N)NCCC[C@@H](N)C(=O)O [D-NMA, reference compound] the “inhibition of EDRF/NO synthesis” value [3] was “not an inhibitor of EDRF/NO synthesis”.

O=[N+]([O-])OCC(CO[N+](=O)[O-])O[N+](=O)[O-] [Nitroglycerin] was tested, and the “Cardiac Output” value [5] was 2.72 ± 0.27 L/min, the “Heart Rate” value [5] was 137.3 ± 5.0 beats/min and the Systemic Arterial Pressure [5] was 64.7 ± 2.7 mmHg. The “Systemic Vascular Resistance” value [5] was 1924 ± 132 dynes-sec/cm^5.

In the case of N=C(NCCC[C@H](N)C(=O)OCc1ccccc1)N[N+](=O)[O-] [Nitro-L-Arginine benzyl ester], the IC50 [2, 10] is reported as > 1200 µM.

With COC(=O)[C@H](N)CCCNC(=N)N[N+](=O)[O-] [Nitro-D-Arginine methyl ester] the IC50 [2] was > 4500 µM.

With NCCc1c[nH]cn1 [histamine, reference compound] the “effect on coronary flow (vasodilation)” value [6] was “dose-dependent increase in coronary flow”.

For CN(C)C(=N)NCCC[C@H](N)C(=O)O [Me,Me--], the “inhibition of EDRF/NO synthesis” value [3] was “served as inhibitors of EDRF/NO synthesis”, the “inhibition of ACh-induced vasorelaxation” value (rabbit aortic rings) was “active inhibitor” and the “potency for inhibition of A23187-stimulated nitrite release” value [7] was “approximately equipotent to L-N^G -methylarginine”.

CN=C(NC)NCCC[C@H](N)C(=O)O [Me,Me'--] was tested, and the “inhibition of ACh-induced vasorelaxation” value (rabbit aortic rings) was “not a good inhibitor”.

N=C(NN)NCCC[C@H](N)C(=O)O [Aminoarginine, L-N^G -aminoarginine] was tested, and the IC50 [2] was 110 µM, the “potency ranking as inhibitor of nitric oxide production” value [2] was “most potent inhibitor of nitric oxide production measured thusfar” and the “potency ranking as inhibitor of nitric oxide production” value ([2]; listed as N^G -aminoarginine) was “most potent derivative tested”. For the same molecule, the “effectiveness in reversing TNF hypotension vs NMMA” value [8] was “more effective than NMMA”, the “activity ranking in inhibition of ACh-induced relaxation” value ([3]; compounds tested thus far) was “greatest activity” and the “inhibition of EDRF/NO synthesis” value [3] was “served as inhibitors of EDRF/NO synthesis”. For the same molecule, the “effect on cytolytic effect of TNF towards tumor cells” value (L929 cells) was “did not alter the cytolytic effect of TNF”, the survival (lethal ET shock animal; ET 2 mg/kg, multiple NAA doses, then autopsied) was 24 h and the “pathological changes at autopsy” value (lethal ET shock animal; liver, lungs, heart, brain, bowel or kidney) was “No pathological changes”. The “reversal of IL-1 mediated hypotension” value [9] was “reverse systemic hypotension”.

B1: IFN: recombinant murine gamma-interferon (protein, UniProt P01580 23-155, looked up)
Interferon gamma: HGTVIESLESLNNYFNSSGIDVEEKSLFLDIWRNWQKDGDMKILQSQIISFYLRLFEVLKDNQAISNNISVIESHLITTFFSNSKAKKDAFMSIAKFEVNNPQVQRQAFNELIRVVHQLLPESSLRKRKRSRC
B1 was tested, and the “effect on nitrite production by MBEC” value [4] was “no effect”.
